# According to the supplement of paper PMC10307832:
# Legend:
# Assay in all cases: relative viability (nuclei count vs DMSO), 5 days (fraction); higher = more cells survive
# TPCA-1 + Foretinib = compound: C1=CC(=CC=C1C2=CC(=C(S2)NC(=O)N)C(=O)N)F [TPCA-1] + COc1cc2c(Oc3ccc(NC(=O)C4(C(=O)Nc5ccc(F)cc5)CC4)cc3F)ccnc2cc1OCCCN1CCOCC1 [Foretinib] (partner 0.25 µM)
# Outline: (§1)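 After 5 days of treatment, lung cancer cells in 1536-well plates were fixed and stained in a single step (final 0.05% Triton X-100, 1% formaldehyde, 1 ug/ml Hoechst) and their nuclei counted on 4× images. Treatment had been applied by pin tool the day after seeding as one drug alone or as a fixed anchor-drug dose with five library-drug doses (not always all listed) in √10 steps. Relative viability is the nuclei count of treated wells divided by that of vehicle wells, and values are medians of duplicate plates.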
# [1] = compound: C[C@]12O[C@H](C[C@]1(O)CO)n1c3ccccc3c3c4c(c5c6ccccc6n2c5c31)CNC4=O [Lestaurtinib] + Nc1ncn([C@H]2C[C@H](O)[C@@H](CO)O2)c(=O)n1 [Decitabine] (partner 2 µM)
# Outline: as §1
# TPCA-1 + Palbociclib = compound: C1=CC(=CC=C1C2=CC(=C(S2)NC(=O)N)C(=O)N)F [TPCA-1] + CC(=O)c1c(C)c2cnc(Nc3ccc(N4CCNCC4)cn3)nc2n(C2CCCC2)c1=O [Palbociclib] (partner 0.5 µM)
# Outline: as §1
# [2] = compound: C1/C(=C\C2=CC=CS2)/C(=O)/C(=C/C3=CC=CS3)/C1 + O=C(c1cc(Cc2n[nH]c(=O)c3ccccc23)ccc1F)N1CCN(C(=O)C2CC2)CC1 [Olaparib] (partner 8 µM)
# Outline: as §1
Cell Line,relative viability (TPCA-1 + Foretinib; first compound 0.04 µM),relative viability (TPCA-1 + Foretinib; first compound 0.1265 µM),relative viability (TPCA-1 + Foretinib; first compound 0.4 µM),relative viability (TPCA-1 + Foretinib; first compound 1.265 µM),relative viability (TPCA-1 + Foretinib; first compound 4 µM),relative viability ([1]; first compound 0.005 µM),relative viability ([1]; first compound 0.01581 µM),relative viability ([1]; first compound 0.05 µM),relative viability ([1]; first compound 0.1581 µM),relative viability ([1]; first compound 0.5 µM),relative viability (TPCA-1 + Palbociclib; first compound 0.04 µM),relative viability (TPCA-1 + Palbociclib; first compound 0.1265 µM),relative viability (TPCA-1 + Palbociclib; first compound 0.4 µM),relative viability (TPCA-1 + Palbociclib; first compound 1.265 µM),relative viability (TPCA-1 + Palbociclib; first compound 4 µM),relative viability ([2]; first compound 0.2 µM),relative viability ([2]; first compound 0.6325 µM),relative viability ([2]; first compound 2 µM),relative viability ([2]; first compound 6.325 µM),relative viability ([2]; first compound 20 µM)
201T,1.12,1.04,1.07,1.09,0.9,0.858,0.93,0.98,0.934,0.926,0.376,0.362,0.385,0.386,0.363,0.866,0.856,0.858,0.775,0.84
A549,0.989,1.03,0.947,0.826,0.764,0.262,0.253,0.279,0.318,0.185,,,,,,0.352,0.283,0.642,0.286,0.354
A-427,1.01,1.05,1.05,0.921,0.695,0.548,0.544,0.518,0.347,0.2,0.555,0.507,0.545,0.561,0.553,0.802,0.797,0.762,0.467,0.786
ABC-1,1.28,1.11,1.27,0.964,0.778,1.31,1.36,1.12,0.96,0.66,0.967,0.589,0.584,0.612,0.754,1.02,0.984,1.11,0.842,0.779
BEN,0.654,0.549,0.671,0.679,0.303,0.787,0.854,0.688,0.459,0.349,0.474,0.468,0.531,0.577,0.422,1.15,1.03,1.19,1.04,0.944
CAL-12T,1.21,0.989,1.15,1.08,0.716,,,,,,0.585,0.507,0.445,0.416,0.172,0.691,0.749,0.742,0.648,0.733
COR-L23,1.11,0.884,1.05,0.916,0.803,0.487,0.511,0.384,0.354,0.153,0.316,0.289,0.272,0.206,0.169,0.408,0.367,0.323,0.388,0.325
COR-L 105,1.01,1.1,1.23,1.2,0.983,0.687,0.663,0.582,0.505,0.385,0.419,0.457,0.419,0.379,0.359,0.753,0.757,0.646,0.434,0.618
Calu-6,0.946,0.877,0.862,0.853,0.659,,,,,,,,,,,0.548,0.595,0.55,0.586,0.524
ChaGo-K-1,0.998,0.894,0.992,0.857,0.612,0.553,0.574,0.51,0.463,0.461,0.976,0.663,0.795,0.891,0.733,0.407,0.413,0.381,0.233,0.169
EBC-1,0.0976,0.0894,0.103,0.125,0.13,,,,,,,,,,,0.687,0.754,0.652,0.593,0.69
EKVX,0.627,0.596,0.895,0.624,0.148,0.518,,0.357,0.396,0.342,0.451,,0.469,0.269,0.394,0.884,0.734,0.951,,0.821
EMC-BAC-2,1.02,0.956,1.05,1.14,0.887,0.955,1.04,1.01,0.659,0.418,0.513,0.519,0.524,0.413,0.485,0.51,0.495,0.484,0.424,0.514
EPLC-272H,0.747,0.643,0.815,0.456,0.309,0.334,0.354,0.327,0.278,0.3,0.355,0.3,0.328,0.326,0.297,0.858,0.907,0.627,0.506,0.579
H3255,0.825,0.876,0.821,0.541,0.514,0.792,0.565,0.562,0.512,0.366,0.275,0.292,0.285,0.293,0.279,0.635,0.59,0.635,0.509,0.535
HARA,0.874,0.907,0.887,0.893,0.681,0.699,0.749,0.613,0.513,0.214,0.249,0.298,0.282,0.27,0.176,1.11,0.862,0.944,0.716,0.83
HCC-15,1.09,0.919,1.06,0.96,0.77,0.747,0.843,0.683,0.385,0.191,0.835,0.698,0.801,0.694,0.472,0.784,0.771,0.707,0.656,0.66
HCC-44,,,,,,0.967,0.963,0.926,1.1,0.745,0.987,0.902,0.995,0.995,1.03,0.959,0.985,0.907,0.896,0.989
HCC-78,0.611,0.52,0.608,0.65,0.541,0.748,0.884,0.712,0.662,0.441,0.464,0.455,0.492,0.48,0.387,0.794,0.872,0.906,0.87,0.81

Cell Line,relative viability (TPCA-1 + Foretinib; first compound 0.04 µM),relative viability (TPCA-1 + Foretinib; first compound 0.1265 µM),relative viability (TPCA-1 + Foretinib; first compound 0.4 µM),relative viability (TPCA-1 + Foretinib; first compound 1.265 µM),relative viability (TPCA-1 + Foretinib; first compound 4 µM),relative viability ([1]; first compound 0.005 µM),relative viability ([1]; first compound 0.01581 µM),relative viability ([1]; first compound 0.05 µM),relative viability ([1]; first compound 0.1581 µM),relative viability ([1]; first compound 0.5 µM),relative viability (TPCA-1 + Palbociclib; first compound 0.04 µM),relative viability (TPCA-1 + Palbociclib; first compound 0.1265 µM),relative viability (TPCA-1 + Palbociclib; first compound 0.4 µM),relative viability (TPCA-1 + Palbociclib; first compound 1.265 µM),relative viability (TPCA-1 + Palbociclib; first compound 4 µM),relative viability ([2]; first compound 0.2 µM),relative viability ([2]; first compound 0.6325 µM),relative viability ([2]; first compound 2 µM),relative viability ([2]; first compound 6.325 µM),relative viability ([2]; first compound 20 µM)
HCC-366,0.921,0.86,0.922,0.851,0.654,0.408,0.343,0.378,0.365,0.222,,0.346,0.397,0.328,0.192,0.382,0.35,0.41,0.269,0.353
HCC-827,1.14,1.03,1.06,0.873,0.443,0.298,0.38,0.331,0.367,0.282,0.487,0.407,0.521,0.413,0.278,0.589,0.582,0.72,0.646,0.597
HOP-62,1.19,1.09,1.17,1.06,1.06,0.171,0.231,0.273,0.323,0.211,0.483,0.458,0.497,0.418,0.466,0.433,0.596,0.391,0.359,0.272
IA-LM,1.14,1.02,1.09,1.01,0.885,,,,,,,,,,,0.874,0.871,0.755,0.618,0.879
LC-2-ad,1.06,0.88,0.818,0.845,0.552,0.912,0.829,0.755,0.654,0.476,0.467,0.465,0.49,0.489,0.421,0.73,0.728,0.684,0.577,0.713
LCLC-97TM1,1.11,0.877,0.94,0.633,0.587,,0.242,0.207,0.245,0.257,0.231,0.2,0.199,0.232,0.206,0.459,0.389,0.344,0.275,0.347
LCLC-103H,0.899,0.813,0.758,0.839,0.64,0.783,0.79,0.687,0.534,0.703,0.52,0.519,0.465,0.473,0.494,0.738,0.795,0.739,0.68,0.722
LK-2,1.5,0.969,1.14,1.14,0.729,0.281,0.462,0.239,0.224,0.145,0.726,,0.725,0.697,0.427,0.769,0.787,0.765,0.853,0.753
LOU-NH91,0.984,0.887,0.971,0.97,0.803,0.818,0.816,0.804,0.679,0.659,0.539,0.51,0.471,0.524,0.532,0.943,0.899,0.915,0.872,0.928
LU99A,0.917,0.745,0.78,0.636,0.436,0.711,0.84,0.572,0.366,0.276,0.468,0.365,0.407,0.369,0.258,0.225,0.255,0.279,0.222,0.234
NCI-H522,,,,,,0.683,0.71,0.811,0.652,0.537,1.15,0.978,1.06,1.04,0.953,0.626,0.643,0.657,0.625,0.742
NCI-H596,0.953,0.811,0.855,0.98,0.937,1.04,1.55,0.936,1.26,1.07,,,,,,0.674,0.727,0.767,0.596,0.665
NCI-H1299,1.07,1.07,1.03,1.09,1.07,,,,,,,,,,,1.01,0.969,0.953,0.817,0.962
NCI-H1563,1.03,0.944,0.96,0.991,1.02,,,,,,,,,,,,,,,
NCI-H1623,0.824,0.757,0.937,0.973,0.644,,,,,,,,,,,,,,,
NCI-H1648,,,,,,,0.535,,0.762,0.512,0.254,0.245,0.262,0.254,0.199,0.855,0.81,1.03,0.792,0.814
NCI-H1703,0.308,0.33,0.315,,0.302,,,,,,,,,,,0.547,0.54,0.536,0.423,0.574
NCI-H1792,,,,,,0.485,0.567,0.336,0.543,0.256,0.707,0.562,0.593,0.574,0.496,0.499,0.492,0.627,0.279,0.474
NCI-H2228,0.899,0.677,0.842,0.717,0.722,,,,,,0.865,0.593,0.801,0.543,0.308,0.69,0.431,0.606,0.543,0.482
